We go through 49 compounds from US20250092016A1, “COMPOUNDS AND COMPOSITIONS FOR THE TREATMENT OF CORONAVIRAL RELATED DISEASES” (priority 2021, published 2025).

Like-named read-outs stand apart in the source and are kept apart here.

The assay concerns the target SARS-CoV-2 main protease (M^pro) (Severe acute respiratory syndrome coronavirus 2, UniProt P0DTD1). Kind of assay: Rapid-Fire MS Biochemical Assay measuring Mpro activity (5 nM Mpro). To be noted: Mpro inhibition, 5 μM substrate peptide, 120 min.
The mark [1] stands for this setting: Table 1B, read-out: Rapid-Fire Assay IC50.

What is called IC50 is the concentration that inhibits the measured activity by half. As to `N#CC1CN(c2cc(C(F)(F)F)ncc2Cl)C(=O)N1c1cncc2ccccc12` (racemic) [Compound 70-1, 1-(5-chloro-2-(trifluoromethyl)pyridin-4-yl)-3-(isoquinolin-4-yl)-2-oxoimidazolidine-4-carbonitrile], the IC50 under setting [1] fell in the range of 20 to 200 nM.
As for `N#CC1CN(c2cccc(C(F)(F)F)c2)C(=O)N1c1cncc2ccccc12` (racemic) [Compound 106, 3-(isoquinolin-4-yl)-2-oxo-1-(3-(trifluoromethyl)phenyl)imidazolidine-4-carbonitrile], the IC50 under setting [1] was greater than 1000 nM.
On to `Cc1ccnc(N2C[C@@H](C#N)N(c3cncc4ccccc34)C2=O)n1` (single isomer, unassigned) [Compound 53b], for which the IC50 under setting [1] was greater than 1000 nM.
Turning to `N#C[C@H]1CN(c2ccc(C(F)F)cn2)C(=O)N1c1cncc2ccccc12` (single isomer, unassigned) [Compound 78a], the IC50 under setting [1] is less than 20 nM.
Same read-out and setting: the value for `Cc1ccc(C#N)c(N2CC(C#N)N(c3cncc4ccccc34)C2=O)c1` (racemic) [Compound 116, 1-(2-cyano-5-methylphenyl)-3-(isoquinolin-4-yl)-2-oxoimidazolidine-4-carbonitrile] was less than 20 nM; that for `Cn1c(C(F)(F)F)ccc(N2C[C@@H](C#N)N(c3cncc4ccccc34)C2=O)c1=O` (single isomer, unassigned) [Compound 96b] was greater than 1000 nM.
On the same count and under the same terms, the value for `Cc1cc(N2C[C@@H](C#N)N(c3cncc4ccccc34)C2=O)ccn1` (single isomer, unassigned) [Compound 44b] was greater than 1000 nM; that for `Cc1ccc(C(F)(F)F)cc1N1C[C@@H](C#N)N(c2cncc3ccccc23)C1=O` (single isomer, unassigned) [Compound 24b] was greater than 1000 nM.
Still for that read-out and setting: the value for `Cc1ncc(C(F)(F)F)cc1N1C[C@H](C#N)N(c2cncc3ccccc23)C1=O` (single isomer, unassigned) [Compound 88a] was less than 20 nM; that for `N#CC1CN([C@H]2CC[C@H](C(F)(F)F)CC2)C(=O)N1c1cncc2ccccc12` (stereo partly shown) [Compound 128, 3-(isoquinolin-4-yl)-2-oxo-1-((1 r,4r)-4-(trifluoromethyl)cyclohexyl)imidazolidine-4-carbonitrile] was less than 20 nM; that for `CC(C)c1ccc(N2C[C@H](C#N)N(c3cncc4ccccc34)C2=O)cn1` (single isomer, unassigned) [Compound 94a] was less than 20 nM.
In the case of `N#Cc1cc(Cl)ccc1N1C[C@H](C#N)N(c2cncc3ccccc23)C1=O` (single isomer, unassigned) [Compound 60a], the IC50 under setting [1] was less than 20 nM.
On to `N#C[C@@H]1CN(c2cc(Cl)cnn2)C(=O)N1c1cncc2ccccc12` (single isomer, unassigned) [Compound 54b], for which, under setting [1], the IC50 fell in the range of 200 to 1000 nM.
On to `Cc1cnc(C(F)(F)F)cc1N1C[C@@H](C#N)N(c2cncc3ccccc23)C1=O` (single isomer, unassigned) [Compound 70b], for which the IC50 under setting [1] is greater than 1000 nM.
The same measure, in the same setting: the value for `COc1ccc(C(F)(F)F)cc1N1C[C@H](C#N)N(c2cncc3ccc(S(C)(=O)=O)cc23)C1=O` (single isomer, unassigned) [Compound 38a] was less than 20 nM; that for `N#CC1CN(C2CCC(F)CC2)C(=O)N1c1cncc2ccccc12` (single isomer, unassigned) [Compound 121d] was greater than 1000 nM.
Same read-out and setting: the value for `CC(C)(O)c1ccc(N2C[C@H](C#N)N(c3cncc4ccccc34)C2=O)cc1` (single isomer, unassigned) [Compound 84a] was 20 to 200 nM.
Still for that read-out and setting: next, `Cc1cc(N2C[C@H](C#N)N(c3cncc4ccccc34)C2=O)ccn1` (single isomer, unassigned) [Compound 44a]: 20 to 200 nM; `N#C[C@@H]1CN([C@H]2CC[C@H](F)CC2)C(=O)N1c1cncc2ccccc12` [Compound 121c, (S)-1-((1 r,4S)-4-fluorocyclohexyl)-3-(isoquinolin-4-yl)-2-oxoimidazolidine-4-carbonitrile]: greater than 1000 nM; `CC1(C)CC(N2C[C@@H](C#N)N(c3cncc4ccccc34)C2=O)C1` (single isomer, unassigned) [Compound 126b]: greater than 1000 nM.
In turn, `CC1CC(N2CC(C#N)N(c3cncc4ccccc34)C2=O)C1` (single isomer, unassigned) [Compound 120c] returned an IC50 (Rapid-Fire Assay IC50, Table 1B) greater than 1000 nM.
For `Cc1ncccc1N1CC(C#N)N(c2cncc3ccccc23)C1=O` (racemic) [Compound 74, 3-(isoquinolin-4-yl)-1-(2-methylpyridin-3-yl)-2-oxoimidazolidine-4-carbonitrile], the half-maximal inhibitory concentration (IC50) under setting [1] was 200 to 1000 nM.
On the same count and under the same terms, the value for `COc1ccc(N2C[C@H](C#N)N(c3cncc4ccccc34)C2=O)cn1` (single isomer, unassigned) [Compound 112a] was less than 20 nM; that for `N#C[C@@H]1CN(c2ncc(C(F)(F)F)cn2)C(=O)N1c1cncc2ccccc12` (single isomer, unassigned) [Compound 42b] was greater than 1000 nM; that for `N#C[C@@H]1CN([C@@H]2CCN(C(=O)CO)C2)C(=O)N1c1cncc2ccccc12` (single isomer, unassigned) [Compound 25b] was greater than 1000 nM.
As to `N#C[C@H]1CN(c2cccc(Cl)n2)C(=O)N1c1cncc2ccccc12` (single isomer, unassigned) [Compound 111a], the IC50 under setting [1] was less than 20 nM.
Still for that read-out and setting: the value for `N#C[C@@H]1CN(c2ccccc2F)C(=O)N1c1cncc2ccccc12` (single isomer, unassigned) [Compound 56b] was greater than 1000 nM; that for `N#C[C@@H]1CN(c2ccc(F)nc2)C(=O)N1c1cncc2ccccc12` (single isomer, unassigned) [Compound 55b] was greater than 1000 nM.
The same measure, in the same setting: the value for `N#C[C@H]1CN(c2cccc(C(F)(F)F)n2)C(=O)N1c1cncc2ccccc12` (single isomer, unassigned) [Compound 51a] was 20 to 200 nM.
Same read-out and setting: next, `Cc1cc(Cl)cnc1N1C[C@H](C#N)N(c2cncc3ccccc23)C1=O` (single isomer, unassigned) [Compound 80a]: 20 to 200 nM.
Consider `N#C[C@H]1CN(c2ccc(OC(F)F)cc2)C(=O)N1c1cncc2ccccc12` (single isomer, unassigned) [Compound 71a], for which the IC50 under setting [1] was less than 20 nM.
With `N#C[C@@H]1CN(c2cccc(Cl)c2)C(=O)N1c1cncc2ccc(C(=O)O)cc12` (single isomer, unassigned) [Compound 33b], the IC50 under setting [1] was greater than 1000 nM.
Same read-out and setting: the value for `N#C[C@H]1CN([C@H]2CCC(F)(F)C2)C(=O)N1c1cncc2ccccc12` (single isomer, unassigned) [Compound 141d, (R)-1-((S)-3,3-difluorocyclopentyl)-3-(isoquinolin-4-yl)-2-oxoimidazolidine-4-carbonitrile or (R)-1-((R)-3,3-difluorocyclopentyl)-3-(isoquinolin-4-yl)-2-oxoimidazolidine-4-carbonitrile] was 20 to 200 nM; that for `CC(C)[C@H]1C[C@H](N2C[C@@H](C#N)N(c3cncc4ccccc34)C2=O)C1` [Compound 123d, (S)-1-((1r,3S)-3-isopropylcyclobutyl)-3-(isoquinolin-4-yl)-2-oxoimidazolidine-4-carbonitrile] was greater than 1000 nM.
Turning to `COc1ccc(C(F)(F)F)nc1N1C[C@H](C#N)N(c2cncc3ccccc23)C1=O` (single isomer, unassigned) [Compound 47a], the 50% inhibitory concentration (IC50) under setting [1] is 20 to 200 nM.
The same measure, in the same setting: the value for `N#C[C@H]1CN(c2cnc(C(F)(F)F)c(F)c2)C(=O)N1c1cncc2ccccc12` (single isomer, unassigned) [Compound 77a] was less than 20 nM; that for `CC(C)(O)c1ccc2cncc(N3C(=O)N(c4cccc(Cl)c4)CC3C#N)c2c1` (stereo not shown) [Compound 34, 1-(3-chlorophenyl)-3-(6-(2-hydroxypropan-2-yl)isoquinolin-4-yl)-2-oxoimidazolidine-4-carbonitrile] was less than 20 nM; that for `COCCNC(=O)c1ccc2cncc(N3C(=O)N(c4cccc(Cl)c4)CC3C#N)c2c1` (stereo not shown) [Compound 36, 4-(3-(3-chlorophenyl)-5-cyano-2-oxoimidazolidin-1-yl)-N-(2-methoxyethyl)isoquinoline-6-carboxamide] was 20 to 200 nM.
Still for that read-out and setting: next, `N#C[C@@H]1CN(c2ccc(OC(F)F)cc2F)C(=O)N1c1cncc2ccccc12` (single isomer, unassigned) [Compound 83b]: greater than 1000 nM; `N#C[C@@H]1CN(c2ccc(Cl)cn2)C(=O)N1c1cncc2ccccc12` (single isomer, unassigned) [Compound 41b]: 200 to 1000 nM.
The same measure, in the same setting: the value for `N#Cc1ccc(Cl)cc1N1C[C@@H](C#N)N(c2cncc3ccccc23)C1=O` (single isomer, unassigned) [Compound 20b] was greater than 1000 nM; that for `N#C[C@H]1CN(C2CCC(F)(F)CC2)C(=O)N1c1cncc2ccccc12` (single isomer, unassigned) [Compound 138a] was less than 20 nM; that for `N#C[C@H]1CN(C2CC3(C2)CC(F)(F)C3)C(=O)N1c1cncc2ccccc12` (single isomer, unassigned) [Compound 127a] was less than 20 nM.
Regarding `N#C[C@H]1CN(c2ccc(F)nc2)C(=O)N1c1cncc2ccccc12` (single isomer, unassigned) [Compound 55a], the IC50 under setting [1] fell in the range of 20 to 200 nM.
Still for that read-out and setting: the value for `N#C[C@@H]1CN(c2cc(F)ccc2F)C(=O)N1c1cncc2ccccc12` (single isomer, unassigned) [Compound 109b] was greater than 1000 nM; that for `N#C[C@H]1CN(C23CC(C(F)(F)F)(C2)C3)C(=O)N1c1cncc2ccccc12` (single isomer, unassigned) [Compound 137a] was less than 20 nM.
For the compound `N#C[C@@H]1CN(c2nc(Cl)c[nH]2)C(=O)N1c1cncc2ccccc12` (single isomer, unassigned) [Compound 119b], the IC50 under setting [1] is greater than 1000 nM.
Same read-out and setting: next, `N#CC1CN(C23CC(F)(C2)C3)C(=O)N1c1cncc2ccccc12` (racemic) [Compound 139, 1-(3-fluorobicyclo[1.1.1]pentan-1-yl)-3-(isoquinolin-4-yl)-2-oxoimidazolidine-4-carbonitrile]: 20 to 200 nM; `N#C[C@H]1CN(c2cc(C(F)(F)F)cnn2)C(=O)N1c1cncc2ccccc12` (single isomer, unassigned) [Compound 30a]: less than 20 nM.
